Test results reported in ChEMBL document CHEMBL2407030, “Novel nicotinic acetylcholine receptor agonists containing carbonyl moiety as a hydrogen bond acceptor” (Bioorg Med Chem Lett, 2013).

Columns and labels:
[1] = target: T1, Neuronal acetylcholine receptor; alpha3/beta4 (Homo sapiens, UniProt P30926+P32297); experiment: Agonist activity at human alpha3beta4 nACHR expressed in CHO cell membranes assessed as stimulation of calcium flux by FLIPR assay; type: cell-based
[2] = target: T1, Neuronal acetylcholine receptor; alpha3/beta4; experiment: Agonist activity at human alpha3beta4 nACHR expressed in CHO cell membranes assessed as stimulation of calcium flux by FLIPR assay relative to control; type: cell-based
[3] = target: T2, Neuronal acetylcholine receptor; alpha4/beta2 (Homo sapiens, UniProt P17787+P43681); experiment: Agonist activity at alpha4beta2 nACHR in human SHEP1 cell membranes assessed as stimulation of calcium flux by FLIPR assay relative to control; type: cell-based
T2 sequence (P17787 whole entry): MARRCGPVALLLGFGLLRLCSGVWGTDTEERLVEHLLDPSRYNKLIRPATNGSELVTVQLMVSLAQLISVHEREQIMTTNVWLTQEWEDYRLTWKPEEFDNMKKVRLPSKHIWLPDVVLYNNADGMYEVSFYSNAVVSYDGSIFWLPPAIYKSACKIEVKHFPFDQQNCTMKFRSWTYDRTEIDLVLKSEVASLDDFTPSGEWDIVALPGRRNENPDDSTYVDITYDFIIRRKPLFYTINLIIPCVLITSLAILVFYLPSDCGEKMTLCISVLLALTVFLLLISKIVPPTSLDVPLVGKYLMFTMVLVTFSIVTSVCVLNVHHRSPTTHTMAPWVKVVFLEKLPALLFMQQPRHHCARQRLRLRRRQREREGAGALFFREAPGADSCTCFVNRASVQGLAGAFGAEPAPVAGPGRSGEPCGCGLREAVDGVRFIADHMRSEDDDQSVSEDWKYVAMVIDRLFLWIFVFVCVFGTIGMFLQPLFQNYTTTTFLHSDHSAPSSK
T2 sequence (P43681 whole entry): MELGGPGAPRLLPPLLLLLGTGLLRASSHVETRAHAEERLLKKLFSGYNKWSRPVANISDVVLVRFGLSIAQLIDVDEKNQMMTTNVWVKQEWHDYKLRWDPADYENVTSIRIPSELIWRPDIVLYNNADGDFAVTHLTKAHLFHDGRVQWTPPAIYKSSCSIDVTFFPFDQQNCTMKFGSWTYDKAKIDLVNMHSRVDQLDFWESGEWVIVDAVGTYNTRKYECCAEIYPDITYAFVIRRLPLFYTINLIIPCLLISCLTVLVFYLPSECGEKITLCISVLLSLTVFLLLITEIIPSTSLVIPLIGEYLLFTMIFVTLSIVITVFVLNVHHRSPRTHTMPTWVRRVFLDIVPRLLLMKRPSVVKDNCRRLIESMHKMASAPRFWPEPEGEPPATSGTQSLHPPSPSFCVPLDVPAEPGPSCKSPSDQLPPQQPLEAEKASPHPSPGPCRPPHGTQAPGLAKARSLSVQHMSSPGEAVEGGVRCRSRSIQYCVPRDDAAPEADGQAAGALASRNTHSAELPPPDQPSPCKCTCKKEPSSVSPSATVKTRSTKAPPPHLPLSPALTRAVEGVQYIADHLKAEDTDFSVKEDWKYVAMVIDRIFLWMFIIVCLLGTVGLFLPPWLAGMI

[4] = target: Neuronal acetylcholine receptor subunit alpha-7 (Homo sapiens, UniProt P36544); experiment: Displacement of [3H]Epibatidine from human alpha7 nACHR expressed in CHO cell membranes after 2 hrs by liquid scintillation counting analysis
Chain of Neuronal acetylcholine receptor subunit alpha-7 (P36544 whole entry): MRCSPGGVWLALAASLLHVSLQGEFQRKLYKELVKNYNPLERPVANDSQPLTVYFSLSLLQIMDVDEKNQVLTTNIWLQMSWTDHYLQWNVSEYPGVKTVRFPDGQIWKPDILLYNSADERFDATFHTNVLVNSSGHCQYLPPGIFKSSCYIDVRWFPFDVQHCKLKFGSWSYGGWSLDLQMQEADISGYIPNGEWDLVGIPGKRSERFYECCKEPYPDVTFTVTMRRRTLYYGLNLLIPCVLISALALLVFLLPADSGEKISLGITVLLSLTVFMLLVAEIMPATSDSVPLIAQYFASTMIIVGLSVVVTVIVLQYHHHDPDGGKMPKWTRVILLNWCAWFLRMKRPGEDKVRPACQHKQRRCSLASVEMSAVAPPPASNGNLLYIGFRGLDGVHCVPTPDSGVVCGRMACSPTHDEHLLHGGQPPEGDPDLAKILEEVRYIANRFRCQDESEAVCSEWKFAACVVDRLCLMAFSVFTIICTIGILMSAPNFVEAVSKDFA

[5] = target: T1, Neuronal acetylcholine receptor; alpha3/beta4; experiment: Displacement of [3H]Epibatidine from human alpha3beta4 nACHR expressed in CHO cell membranes after 2 hrs by liquid scintillation counting analysis
[6] = target: T2, Neuronal acetylcholine receptor; alpha4/beta2; experiment: Agonist activity at alpha4beta2 nACHR in human SHEP1 cell membranes assessed as stimulation of calcium flux by FLIPR assay; type: cell-based
[7] = target: T2, Neuronal acetylcholine receptor; alpha4/beta2; experiment: Displacement of [3H]Nicotine from alpha4beta2 nACHR in human SHEP1 cell membranes after 2 hrs by liquid scintillation counting analysis

T1 sequence (P30926 whole entry): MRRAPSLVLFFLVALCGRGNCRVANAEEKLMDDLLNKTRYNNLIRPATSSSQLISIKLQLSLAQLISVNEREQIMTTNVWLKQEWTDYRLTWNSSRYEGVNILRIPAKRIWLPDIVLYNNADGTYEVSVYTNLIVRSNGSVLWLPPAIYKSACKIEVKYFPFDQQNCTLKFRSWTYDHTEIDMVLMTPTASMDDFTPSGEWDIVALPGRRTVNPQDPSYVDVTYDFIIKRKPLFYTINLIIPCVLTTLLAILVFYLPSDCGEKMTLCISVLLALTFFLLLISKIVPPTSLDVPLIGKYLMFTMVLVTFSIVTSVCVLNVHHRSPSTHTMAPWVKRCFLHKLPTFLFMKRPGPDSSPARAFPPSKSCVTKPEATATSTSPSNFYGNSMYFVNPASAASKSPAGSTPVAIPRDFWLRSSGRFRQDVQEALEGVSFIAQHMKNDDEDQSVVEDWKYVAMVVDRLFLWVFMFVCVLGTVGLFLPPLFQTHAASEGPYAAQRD
T1 sequence (P32297 whole entry): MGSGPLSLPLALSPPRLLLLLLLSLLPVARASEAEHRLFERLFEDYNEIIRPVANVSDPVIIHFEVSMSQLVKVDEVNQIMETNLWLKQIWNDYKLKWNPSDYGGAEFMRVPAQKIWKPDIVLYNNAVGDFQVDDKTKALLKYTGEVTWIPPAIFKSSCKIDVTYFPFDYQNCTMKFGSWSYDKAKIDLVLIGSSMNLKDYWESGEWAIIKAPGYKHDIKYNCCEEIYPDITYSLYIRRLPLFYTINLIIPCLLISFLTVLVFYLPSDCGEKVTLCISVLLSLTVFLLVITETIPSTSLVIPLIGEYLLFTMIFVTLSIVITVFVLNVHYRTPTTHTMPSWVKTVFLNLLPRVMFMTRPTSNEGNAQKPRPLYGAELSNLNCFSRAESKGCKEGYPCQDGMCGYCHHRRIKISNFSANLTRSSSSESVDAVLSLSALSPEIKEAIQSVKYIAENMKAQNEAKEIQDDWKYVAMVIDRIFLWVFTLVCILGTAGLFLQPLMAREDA

| SMILES | EC50 [1] | Emax [2] | Emax [3] | Ki [4] | Ki [5] | EC50 [6] | Ki [7] |
| --- | --- | --- | --- | --- | --- | --- | --- |
| CC(C)NC(=O)[C@H]1C[C@@H]2CNC[C@@H](C2)C1 | 27 µM | 25% | 64% | 11000 nM | 6000 nM | 1900 nM | 23 nM |
| O=C(C1CC1)[C@H]1C[C@@H]2CNC[C@@H](C2)C1 | 1.3 µM | 10% | 22% |  | 4100 nM | 7100 nM | 43 nM |
| O=C(c1ccco1)[C@H]1C[C@@H]2CNC[C@@H](C2)C1 |  |  |  | 15000 nM |  |  | 110 nM |
| CNC(=O)[C@H]1C[C@@H]2CNC[C@@H](C2)C1 | 100 µM | 5% | 65% |  |  | 2000 nM | 1.9 nM |
| CCCNC(=O)[C@H]1C[C@@H]2CNC[C@@H](C2)C1 | 15 µM | 24% | 54% | 10000 nM | 4000 nM | 2400 nM | 6 nM |
| CN1CCC[C@H]1c1cccnc1 |  | 100% | 100% |  |  |  |  |
| COC(=O)C1CC2CNCC(C2)C1 (mixture of isomers) |  |  |  |  |  |  | 2400 nM |
| O=C([C@@H]1C[C@@H]1F)N1CC2CNCC2C1 (mixture of isomers) | 13 µM | 88% | 120% | 6900 nM | 860 nM | 930 nM | 17 nM |
| O=C([C@H]1C[C@H]1F)N1CC2CNCC2C1 (mixture of isomers) | 24 µM | 140% | 130% | 1400 nM | 380 nM | 1000 nM | 5 nM |
| O=C([C@H]1C[C@@H]1F)N1CC2CNCC2C1 (mixture of isomers) | 14 µM | 90% | 140% | 2700 nM | 810 nM | 900 nM | 30 nM |
| O=C([C@@H]1C[C@H]1F)N1CC2CNCC2C1 (mixture of isomers) | 8.4 µM | 150% | 130% | 990 nM | 420 nM | 190 nM | 9 nM |
| C[C@H]1C[C@H]1C(=O)N1CC2CNCC2C1 (mixture of isomers) | 10 µM | 110% | 100% | 4500 nM | 2000 nM | 19000 nM | 18 nM |
| C[C@@H]1C[C@@H]1C(=O)N1CC2CNCC2C1 (mixture of isomers) | 1.4 µM | 180% | 140% | 350 nM | 280 nM | 1200 nM | 1 nM |
| C[C@@H]1C[C@H]1C(=O)N1CC2CNCC2C1 (mixture of isomers) | 14 µM | 110% | 100% | 1900 nM | 360 nM | 1700 nM | 4 nM |
| C[C@H]1C[C@@H]1C(=O)N1CC2CNCC2C1 (mixture of isomers) | 34 µM | 26% | 68% | 100000 nM | 13000 nM | 5600 nM | 43 nM |
| O=C([C@@H]1C[C@@H]1F)N1CC2CNCC(C2)C1 (mixture of isomers) | 11 µM | 90% | 11% | 300 nM | 1200 nM | 400 nM | 5.2 nM |

| SMILES | EC50 [1] | Emax [2] | Emax [3] | Ki [4] | Ki [5] | EC50 [6] | Ki [7] |
| --- | --- | --- | --- | --- | --- | --- | --- |
| O=C([C@H]1C[C@H]1F)N1CC2CNCC(C2)C1 (mixture of isomers) | 2.1 µM | 130% | 7% | 100 nM | 150 nM | 9200 nM | 1.4 nM |
| O=C([C@@H]1C[C@H]1F)N1CC2CNCC(C2)C1 (mixture of isomers) | 0.39 µM | 130% | 77% | 10 nM | 36 nM | 430 nM | 1 nM |
| O=C([C@H]1C[C@@H]1F)N1CC2CNCC(C2)C1 (mixture of isomers) | 8 µM | 210% | 84% | 400 nM | 320 nM | 2700 nM | 7.3 nM |
| C[C@@H]1C[C@H]1C(=O)N1CC2CNCC(C2)C1 (mixture of isomers) | 1.6 µM | 120% | 23% | 30 nM | 100 nM | 12000 nM | 1 nM |
| C[C@H]1C[C@@H]1C(=O)N1CC2CNCC(C2)C1 (mixture of isomers) | 8.3 µM | 89% | 21% | 300 nM | 600 nM | 10000 nM | 28 nM |
| C[C@@H]1C[C@@H]1C(=O)N1CC2CNCC(C2)C1 (mixture of isomers) | 0.08 µM | 160% | 5% | 5 nM | 10 nM | 1900 nM | 0.2 nM |
| C[C@H]1C[C@H]1C(=O)N1CC2CNCC(C2)C1 (mixture of isomers) | 0.3 µM | 140% | 0.5% | 100 nM | 100 nM | 100000 nM | 2.9 nM |
| CC(=O)N1CC2CNCC2C1 (mixture of isomers) | 23 µM | 36% | 110% |  | 14000 nM | 2600 nM | 38 nM |
| CC(=O)N1CC2CNCC(C2)C1 (mixture of isomers) | 13 µM | 110% | 34% | 3300 nM | 5500 nM | 9900 nM |  |
| CCC(=O)N1CC2CNCC(C2)C1 (mixture of isomers) | 5.9 µM | 130% | 83% | 1600 nM | 20000 nM | 1900 nM | 8 nM |
| COC(=O)N1CC2CNCC(C2)C1 (mixture of isomers) |  |  | 65% |  |  | 5200 nM | 20 nM |
| COC(=O)N1CC2CNCC2C1 (mixture of isomers) | 16 µM | 85% |  |  | 14000 nM |  | 23 nM |
| CNC(=O)[C@H]1C[C@H]2CNC[C@H]2C1 (mixture of isomers) |  |  |  | 27000 nM |  |  | 180 nM |
| O=C(C1CC1)[C@H]1C[C@H]2CNC[C@H]2C1 (mixture of isomers) | 0.93 µM | 130% | 120% | 140 nM | 70 nM | 18 nM | 0.5 nM |
| O=C(c1ccco1)[C@H]1C[C@H]2CNC[C@H]2C1 (mixture of isomers) | 11 µM | 40% | 94% | 3400 nM | 2200 nM | 1600 nM | 13 nM |
| COC(=O)[C@H]1C[C@H]2CNC[C@H]2C1 (mixture of isomers) | 14 µM | 100% | 130% | 13000 nM | 400 nM | 1200 nM | 8 nM |
